Results from US20240261274A1, “TREATMENT OF MYC-DRIVEN CANCERS WITH GSPT1 DEGRADERS” (MONTE ROSA THERAPEUTICS, INC., priority 2021, published 2024).

Assays:
[1] = system: cells with wildtype (WT) cereblon; assay: Viability in cells with wildtype cereblon; type: cell-based
Text: X-axis axis represents m concentration of compound 8; y-axis represents viability normalized to DMSO.

GSPT1 = GSPT1 (Homo sapiens, UniProt P15170+Q96SW2); assay: GSPT1 degradation in tumors of mice treated with compound 210; type: in vivo; design: from tissue; host or cells: NCI-H1155 subcutaneous xenograft tumours from BALB/c nude mice; conditions: 1 mg/kg, 3 mg/kg, 6 mg/kg; compared to vehicle control
Sequence of GSPT1 (P15170 whole entry): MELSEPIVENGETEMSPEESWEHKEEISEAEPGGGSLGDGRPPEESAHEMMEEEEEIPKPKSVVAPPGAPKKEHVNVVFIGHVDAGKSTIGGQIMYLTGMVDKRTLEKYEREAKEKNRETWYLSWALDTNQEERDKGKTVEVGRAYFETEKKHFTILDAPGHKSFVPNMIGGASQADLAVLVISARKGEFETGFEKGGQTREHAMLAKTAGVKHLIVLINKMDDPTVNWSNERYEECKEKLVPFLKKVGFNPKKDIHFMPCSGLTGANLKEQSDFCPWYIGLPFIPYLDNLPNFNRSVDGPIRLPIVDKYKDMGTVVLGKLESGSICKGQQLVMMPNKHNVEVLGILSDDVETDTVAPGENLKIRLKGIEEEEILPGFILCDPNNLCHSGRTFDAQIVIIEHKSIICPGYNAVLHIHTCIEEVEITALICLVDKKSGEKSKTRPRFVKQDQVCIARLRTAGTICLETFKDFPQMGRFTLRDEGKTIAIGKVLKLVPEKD
Sequence of GSPT1 (Q96SW2 whole entry): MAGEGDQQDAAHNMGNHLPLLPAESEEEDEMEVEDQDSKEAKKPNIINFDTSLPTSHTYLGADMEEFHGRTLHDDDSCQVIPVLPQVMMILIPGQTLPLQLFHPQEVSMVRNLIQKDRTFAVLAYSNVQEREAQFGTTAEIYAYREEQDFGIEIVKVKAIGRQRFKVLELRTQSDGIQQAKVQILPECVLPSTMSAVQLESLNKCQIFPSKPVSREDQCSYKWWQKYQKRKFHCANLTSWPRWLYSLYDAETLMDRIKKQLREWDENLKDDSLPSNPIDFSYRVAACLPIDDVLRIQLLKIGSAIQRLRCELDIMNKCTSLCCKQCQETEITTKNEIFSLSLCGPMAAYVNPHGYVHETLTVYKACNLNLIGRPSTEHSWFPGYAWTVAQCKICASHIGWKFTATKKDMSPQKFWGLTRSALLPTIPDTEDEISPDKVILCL
Sequence of GSPT1 (Q16531 whole entry partner): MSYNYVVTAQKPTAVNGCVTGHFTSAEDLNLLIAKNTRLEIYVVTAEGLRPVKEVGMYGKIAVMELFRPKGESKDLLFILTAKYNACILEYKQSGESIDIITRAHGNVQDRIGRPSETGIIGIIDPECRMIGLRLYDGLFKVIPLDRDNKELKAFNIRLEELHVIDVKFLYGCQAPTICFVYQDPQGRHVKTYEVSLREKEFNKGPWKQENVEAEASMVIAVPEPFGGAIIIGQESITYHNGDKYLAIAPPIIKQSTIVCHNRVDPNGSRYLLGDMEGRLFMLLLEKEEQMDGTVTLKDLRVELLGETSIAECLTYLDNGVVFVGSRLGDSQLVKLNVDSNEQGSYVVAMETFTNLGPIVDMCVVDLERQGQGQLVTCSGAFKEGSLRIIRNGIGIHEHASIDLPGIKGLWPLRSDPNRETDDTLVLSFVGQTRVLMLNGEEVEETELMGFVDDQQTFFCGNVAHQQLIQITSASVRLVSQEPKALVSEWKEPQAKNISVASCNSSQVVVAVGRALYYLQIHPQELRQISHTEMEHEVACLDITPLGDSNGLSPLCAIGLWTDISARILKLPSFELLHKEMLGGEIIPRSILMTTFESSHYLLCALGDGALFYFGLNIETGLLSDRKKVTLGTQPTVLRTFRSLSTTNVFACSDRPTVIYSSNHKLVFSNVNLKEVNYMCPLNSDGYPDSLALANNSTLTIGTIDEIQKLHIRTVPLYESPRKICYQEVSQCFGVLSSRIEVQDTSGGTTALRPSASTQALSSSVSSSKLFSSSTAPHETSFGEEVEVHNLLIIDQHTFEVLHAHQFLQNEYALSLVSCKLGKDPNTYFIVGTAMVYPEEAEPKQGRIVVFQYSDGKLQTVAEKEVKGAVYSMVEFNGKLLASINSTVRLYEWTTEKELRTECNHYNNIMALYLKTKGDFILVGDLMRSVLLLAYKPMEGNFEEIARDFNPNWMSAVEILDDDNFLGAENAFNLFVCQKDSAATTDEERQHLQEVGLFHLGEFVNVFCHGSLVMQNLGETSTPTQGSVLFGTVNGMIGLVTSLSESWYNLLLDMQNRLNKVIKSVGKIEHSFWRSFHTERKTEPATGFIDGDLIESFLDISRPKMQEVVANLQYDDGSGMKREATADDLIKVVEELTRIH

[2] = system: human cell line NCI-H1155 xenograft; assay: N-Myc-driven mouse xenograft model, NCI-H1155, compound 210 oral; type: in vivo
[3] = system: NSCLC patient derived xenografts; assay: Patient derived NSCLC xenograft models (PDX), tumor progression free probability; type: in vivo, immunodeficient mice; conditions: high L-Myc or N-Myc expressing PDX models, oral 10 mg/kg daily, progression >800 mm^3
Procedure: Patient derived NSCLC xenograft models (PDX) were made using immunodeficient mice. 14 PDXs were made for high L-Myc or N-Myc expressing NSCLC samples and 19 PDXs were made for low L-Myc or N-Myc expressing NSCLC samples. Animals were divided into a treatment group that received an oral dose of 10 mg/kg Compound 345 daily and a vehicle-only control group. […] Data from these experiments are shown in FIG. 14A (high L-Myc or high N-Myc expressing) and FIG. 14B (low L-Myc or low N-Myc expressing). Tumor progression free probability was plotted over time, with a threshold of tumor progression set at greater than 800 mm^3.
We used log 2FPKM cutoff of 1.5 and 3.4 for N-Myc and L-Myc expression respectively. PDX tumor fragments (2-3 mm in diameter) were inoculated subcutaneously at the upper right dorsal flank of 6-8 weeks old female BALB7c or NODS/CID nude mice. […] Mice were PO dosed with vehicle or Compound 345 at 10 mg/kg daily and tumor volumes recorded at least twice a week. […] For each mouse, we calculated the first day the tumor volume reached 800 mm3 as the endpoint. […] Kaplan-Meier curves were generated in R (ver 4.0.2, survminer package) and log-rank (Mantel-Cox) test P-values were calculated using R (ver 4.0.2, survival package) to assess the differences in survival curves between the Compound 345-treated and vehicle treated samples. […]

[4] = system: patient-derived xenografts; assay: In vivo mouse patient-derived xenograft experiment, survival, Compound 345
Text: FIGS. 14A and 14B: In vivo mouse patient-derived xenograft experiment.

[5] = system: WSU-DLCL2 triple hit lymphoma cell line derived xenograft; assay: WSU-DLCL2 triple hit lymphoma CDX efficacy study; type: in vivo, immunodeficient mice; conditions: oral daily 3 mg/kg and 10 mg/kg
Procedure: Additionally, cell line derived xenograft (CDX) models were produced for the triple hit lymphoma cell line (WSU-DLCL2) in immunodeficient mice. Oral dosing of Compound 345 was performed daily at doses of 3 mg/kg and 10 mg/kg as well as the CHOP combination (a well-known lymphoma treatment regimen) and a no-drug vehicle control. Tumor volumes were measured (mm^3) at regular intervals over the course of up to 30 days depending on the animal.
In vivo efficacy study: NCI-H1155, MM1 S, WSU-DLCL2, DOHH-2 cells were maintained in vitro in individual medium and conditions as recommended by the providers and incubated at 37° C. in an atmosphere of 5% CO2 in air. 0.5 million (NCI-H1155), 10 million (MM1S) or 5 million (WSU-DLCL2 and DOHH-2) cells were resuspended in typically 0.1-0.2 mL of PBS with Matrigel (50:50) and were inoculated into 6-8 weeks old BALB/c nude female (NCI-H115, WSU-DLCL2), NOD/SCID (MM1S) or CB-17SCID (DOHH-2) mice and allowed to grow to 150-200 mm3 in size. […] Tumor volumes were measured at least twice weekly during the treatment period using a caliper and the volume was expressed in mm3 using the formula: V=0.5 a×b2 where a and b were the long and short diameters of the tumor, respectively. […] Data are expressed as the mean±SEM. All data was analyzed using GraphPad Prism 8.1.2 (GraphPad).

SMILES: Cc1ccc(NC(=O)NCc2ccc3c(c2)C(=O)N(C2CCC(=O)NC2=O)C3)cc1Cl (centres unmarked) [Compound 8]
- induction of death (viability normalized to DMSO) [1]: did induce death

SMILES: Cc1ccc(NC(=O)OCc2ccc3c(c2)C(=O)N(C2CCC(=O)NC2=O)C3)cc1Cl (centres unmarked) [Compound 210]
- GSPT1 degradation in tumors (GSPT1): complete degradation of GSPT1
- tumor growth ([2]; 1 mg/kg once daily PO): tumor growth was suppressed for two weeks
- tumor size ([2]; 3 mg/kg once daily PO): tumor size decreased, became undetectable by day eight and remained so until the end of the study at day 21
- tumor size ([2]; 6 mg/kg PO, five days on and nine days off): tumor size decreased, became undetectable by day eight and remained so until the end of the study at day 21
- body weight ([2]; oral administration (PO)): no body weight loss observed
- tumor growth ([2]; oral administration (PO)): tumor growth inhibition

SMILES: O=C1CCC(N2Cc3ccc(COC(=O)Nc4cc(OC(F)(F)F)ccc4F)cc3C2=O)C(=O)N1 (centres unmarked) [Compound 345, (2-(2,6-dioxopiperidin-3-yl)-3-oxoisoindolin-5-yl)methyl(2-fluoro-5-(trifluoromethoxy)phenyl)carbamate]
- tumor progression free probability [3]: significantly extended the probability that an animal remained tumor-free
- survival ([4]; biomarker negative patient-derived xenografts): but not in the biomarker negative patient-derived xenografts
- survival ([4]; biomarker positive (high N-Myc or L-Myc mRNA expression) patient-derived xenografts): significantly prolonged survival
- tumor volume [5]: anti-tumor activity
